Data from patent publication US10577610B2, “EpCAM aptamers and conjugates thereof” (Deakin University, priority 2015, dated 2020).
Values joined by “and” are separate entries in the source; they are usually repeats but may differ in a detail not shown here. Identical values can stand only once. [invdT] = inverted (3'-3') thymidine; {TYE665} = TYE665 fluorescent dye

Columns and labels:
mouse TfR = target: T1, mouse TfR (Mus musculus, UniProt Q62351); experiment: Flow cytometry binding assay on bEnd.3 cells (TfR-positive); details: bEnd.3 (TfR-positive) cells, n=3
T1 construct: bEnd.3 cells, mouse cells positive for TfR; host or cells: bEnd.3 mouse cerebral endothelial cells
Protocol: In order to determine the binding affinity (equilibrium dissociation constant KD) of the aptamers. Binding assays were conducted to measure the binding to native EpCAM protein expressed on the cell surface. The aptamers were incubated with the cells at concentrations ranging from 0 nM to 400 nM. These were subsequently analysed by flow cytometry. Aptamers were thawed from storage (-20° C.) prior to use. These were then diluted via serial dilutions with phosphate buffered saline (PBS) in order to achieve the desired concentrations. PBS was supplemented with a MgCl2 concentration appropriate for the aptamer (1 mM for anti-TfR aptamers; 5 mM for conjugate aptamers). […] Concurrently, subcultured cells were incubated in blocking buffer (PBS with 10% FCS, 1 mg/mL BSA, 0.1 mg/mL tRNA) for 30 minutes. Following centrifugation, blocking buffer was removed and cells were resuspended in binding buffer (PBS with 10% FCS, 1 mg/mL BSA, 0.1 mg/mL tRNA). Cells (50 μL) were then incubated with the aptamers (50 μL) for 30 minutes at 37° C. at a range of concentrations (0 nM, 20 nM, 40 nM, 60 nM, 80 nM, 100 nM, 200 nM, 400 nM). Following this, cells were washed in 100 μL PBS three times before final resuspension for flow cytometry. Aptamers were incubated with the chosen cell lines (bEnd.3 cells, mouse cells positive for TfR; HEY cells, human ovarian cancer cell line positive for EpCAM; and MOLT4 human cells negative for both TfR and EpCAM) at a range of concentrations. Aptamer-bound cells were analysed using a FACS Canto II flow cytometer (Becton Dickinson), counting 10,000 events for each sample, in order to determine the binding affinity of the aptamers. […] The value for the auto fluorescent 0 nM concentration was subtracted from the other figures to account for background fluorescence (Li N et al (2009) Journal of Proteome Research 8(5):2438-48). […] The binding affinities of aptamers TfR1, TfR2, […] determined semi-quantitatively via flow cytometry, using bEnd.3 mouse cerebral endothelial cells as a Tf R-positive cell line and MOLT4 acute lymphoblastic leukaemia cells-which express the human TfR, but not the mouse TfR (Sutherland R et al (1981) PNAS 78(7):4515-9)-as a negative control. Three independent binding assays were performed for each aptamer against each cell line. […] Three independent binding assays were performed for these aptamer against all three cell lines (bEnd.3, HEY and MOLT4).

[1] = target: T2, native EpCAM protein expressed on the cell surface (HEY cells) (Homo sapiens, UniProt P16422); experiment: Flow cytometry binding assay on HEY cells (EpCAM-positive); details: for Kd: HEY (EpCAM-positive) cells, flow cytometry, n=3
T2 construct: host or cells: HEY ovarian cancer cells
T2 sequence (P16422 24-314): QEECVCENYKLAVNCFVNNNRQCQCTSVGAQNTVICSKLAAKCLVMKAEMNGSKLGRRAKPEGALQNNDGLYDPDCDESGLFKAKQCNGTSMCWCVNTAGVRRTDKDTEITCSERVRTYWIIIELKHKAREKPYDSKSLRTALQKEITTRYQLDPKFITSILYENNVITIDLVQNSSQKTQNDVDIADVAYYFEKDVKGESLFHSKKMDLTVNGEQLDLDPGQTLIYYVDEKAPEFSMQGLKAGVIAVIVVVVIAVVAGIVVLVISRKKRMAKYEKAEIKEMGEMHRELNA
Protocol: In order to determine the binding affinity (equilibrium dissociation constant KD) of the aptamers. Binding assays were conducted to measure the binding to native EpCAM protein expressed on the cell surface. The aptamers were incubated with the cells at concentrations ranging from 0 nM to 400 nM. These were subsequently analysed by flow cytometry. Aptamers were thawed from storage (−20° C.) prior to use. These were then diluted via serial dilutions with phosphate buffered saline (PBS) in order to achieve the desired concentrations. PBS was supplemented with a MgCl2 concentration appropriate for the aptamer (1 mM for anti-TfR aptamers; 5 mM for conjugate aptamers). Aptamers were then folded into their 3D structures using a thermocycler (85° C. for 5 minutes, slow cooling to 22° C. over 10 minutes and 37° C. for 15 minutes).
Concurrently, subcultured cells were incubated in blocking buffer (PBS with 10% FCS, 1 mg/mL BSA, 0.1 mg/mL tRNA) for 30 minutes. Following centrifugation, blocking buffer was removed and cells were resuspended in binding buffer (PBS with 10% FCS, 1 mg/mL BSA, 0.1 mg/mL tRNA). Cells (50 μL) were then incubated with the aptamers (50 μL) for 30 minutes at 37° C. at a range of concentrations (0 nM, 20 nM, 40 nM, 60 nM, 80 nM, 100 nM, 200 nM, 400 nM). Following this, cells were washed in 100 μL PBS three times before final resuspension for flow cytometry.
Aptamers were incubated with the chosen cell lines (bEnd.3 cells, mouse cells positive for TfR; HEY cells, human ovarian cancer cell line positive for EpCAM; and MOLT4 human cells negative for both TfR and EpCAM) at a range of concentrations. Aptamer-bound cells were analysed using a FACS Canto II flow cytometer (Becton Dickinson), counting 10,000 events for each sample, in order to determine the binding affinity of the aptamers. […] The value for the auto fluorescent 0 nM concentration was subtracted from the other figures to account for background fluorescence (Li N et al (2009) Journal of Proteome Research 8(5):2438-48). The resultant values were then used to determine the dissociation constant (KD) via the Graph Pad Prism 3 software. […]
The binding affinities of aptamers Bi1, Bi2 and Bi3 were determined semi-quantitatively via flow cytometry, using bEnd.3 cells to assess reactivity with TfR, HEY cells to determine EpCAM specificity and the MOLT4 cell line as a negative control. Three independent binding assays were performed for these aptamer against all three cell lines (bEnd.3, HEY and MOLT4). […]

T1 sequence (Q62351 whole entry): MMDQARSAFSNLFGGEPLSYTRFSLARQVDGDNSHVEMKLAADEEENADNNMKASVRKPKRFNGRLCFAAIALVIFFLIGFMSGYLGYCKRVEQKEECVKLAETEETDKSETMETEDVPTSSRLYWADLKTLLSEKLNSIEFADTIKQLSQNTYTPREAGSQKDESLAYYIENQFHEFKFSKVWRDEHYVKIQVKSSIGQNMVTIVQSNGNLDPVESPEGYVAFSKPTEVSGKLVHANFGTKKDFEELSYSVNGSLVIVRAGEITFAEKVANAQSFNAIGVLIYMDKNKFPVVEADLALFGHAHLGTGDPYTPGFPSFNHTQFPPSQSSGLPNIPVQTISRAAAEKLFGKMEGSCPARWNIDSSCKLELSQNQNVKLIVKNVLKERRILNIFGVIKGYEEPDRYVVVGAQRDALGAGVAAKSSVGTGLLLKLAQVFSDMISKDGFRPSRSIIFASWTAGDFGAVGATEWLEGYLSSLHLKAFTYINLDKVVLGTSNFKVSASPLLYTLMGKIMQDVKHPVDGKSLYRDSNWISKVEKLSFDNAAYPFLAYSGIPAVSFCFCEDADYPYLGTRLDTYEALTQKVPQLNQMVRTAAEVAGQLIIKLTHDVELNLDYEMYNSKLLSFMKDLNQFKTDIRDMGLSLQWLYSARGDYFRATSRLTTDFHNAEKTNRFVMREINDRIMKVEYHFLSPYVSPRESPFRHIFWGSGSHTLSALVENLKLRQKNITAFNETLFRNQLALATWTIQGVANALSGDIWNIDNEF

## 5′-GCGCGGGCCCGCGCTAACGGAGGTTGCGTCCGT-3′ (GCGCGGGCCCGCGCTAACGGAGGTTGCGTCCGN; DNA sequence of aptamer conjugate Bi2; (33)..(33) n is t or 3′ inverted deoxythymidine (dT))
Mouse TfR
  Kd: 0.305 µM
[1]
  Kd: 0.205 ± 0.0733 µM

## 5′-GCGCGGTACCGCGCTAACGGAGGTTGCGTCCGT-3′ (GCGCGGTACCGCGCTAACGGAGGTTGCGTCCGN; listed as DNA, chemistry not given here) [Bi3]
Mouse TfR
  Kd: 0.342 ± 0.0783 µM
[1]
  Kd: 0.219 ± 0.0492 µM

## Bi1: aptamer conjugate based on TfR1 and scrambled EpCAM binding loop, negative control, SEQ ID NO:8 (GCGCGTGCACGCGCTAACGGATTCCTTTTCCGN; listed as DNA, further chemistry not given here)
Mouse TfR
  Kd: 1.69 ± 1.84 µM
[1]
  Kd: 0.921 ± 0.27 µM

## TfR3: version of TfR1 with scrambled binding loop sequence, SEQ ID NO:6 (DNA GCGTGGTACCACGC; DNA, 5' {TYE665}, 3' [invdT], backbone not given here)
Mouse TfR
  Kd: 0.366 µM and 0.365 µM
[1]; flow cytometry binding curve
  Binding to HEY cell line (specific or non-specific): clear non-specific binding
